{"source": "patent US20210386733A1", "about": "“LYSINE-SPECIFIC HISTONE DEMETHYLASE INHIBITORS FOR THE TREATMENT OF MYELOPROLIFERATIVE NEOPLASMS” (Imago Biosciences, Inc., priority 2019, published 2021)", "key": {"[1]": {"test_system": "patients with myelofibrosis", "assay": "Phase 2B clinical trial of Compound 1 in myelofibrosis (Example 2)", "format": "in vivo, human", "experimental": "A multi-center, open label, dose-range finding study to assess the safety, optimally effective dosing rules, steady-state pharmacokinetics and pharmacodynamics of Compound 1 orally once daily in patients with myelofibrosis was conducted in a Phase 1/2a study. • Primary objectives were to evaluate, in MF patients the effect of Compound 1 on: Safety and tolerability • Pharmacokinetics (Phase 1/2a only) • Reduction in spleen volume\nThis study initiated as a Phase 1/2a study assessing the safety of the starting dose, an 85 day duration of treatment, and the pharmacokinetic and pharmacodynamic effects of Compound 1, with transition to a Phase 2b study incorporating changes supported by the earlier pharmacokinetic and pharmacodynamic studies and safety assessments. This study consisted of two treatment periods: the Initial Treatment Period (ITP), followed by the Additional Treatment Period (ATP). Patients commenced enrolment in the Phase 2b portion of the study, in which the ITP has been extended such that patients were treated daily for 169 days. The ATP, also extended, offered treatment to qualifying patients for an additional 169 days.\nInitial Treatment Period. During the ITP, patients initially returned for study assessments twice weekly for the first week (ITP Days 0, 3 and 7); post-dosing of 3 patients at the new Ds, the DSMC convened to assess the necessity of the Day 3 visit. Patients returned weekly for the next 7 weeks (ITP Days 14, 21, 28, 35, 42, 49 and 56), at least bi-weekly for 8 weeks (ITP Days 70, 84, 98 and 112) and then monthly for 8 weeks (ITP Days 140 and 168). It was anticipated that by Week 8 (Day 56) patients will have achieved a stable dose, with weekly titrations no longer necessary. For the exceptional patient whose dose had not stabilized, weekly visits continued at the PI's discretion (note: bi-weekly visits may also continue post Day 112). On Days 84 and 168, patients underwent abdominal magnetic resonance imaging (MRI), or computerized tomography (CT) if the patient was not a candidate for MRI. On Day 168, bone marrow sampling was also required. Prior to or at the Day 168 visit, but ideally at the Day 140 visit for logistical purposes, a ‘qualification’ assessment was made to determine whether the patient is deriving clinical benefit (defined as not meeting progressive disease criteria and safely tolerating Compound 1; this definition applies throughout document and will not be repeated with each reference to clinical benefit). Such patients qualified for entry into the ATP, a transition which was anticipated to occur without interruption in dosing. Patients not deriving clinical benefit, or who achieve complete response (CR), partial response (PR) or clinical improvement (CI) and subsequently relapse the equivalent of treatment failures, discontinued Compound 1 and undergo End of Treatment (EoT), pre-End of Study (pre-EoS) and End of Study (EoS) visits.\nInitial Treatment Period (ITP). Treatment began on Day 0 at the Ds of 0.5 mg/kg QD for all patients entering the Phase 2b portion of the study. Dose-adjustments could be made at each clinic visit (with the exception of Day 3), with dose-titration, either upward or downward, contingent on the comparison of hematology values from the prior visit, as dictated by the rules below. The Dpi was anticipated to be ≤1.2 mg/kg QD; however, this was not the upper limit for titration purposes as the dose needed to achieve a therapeutic effect will vary among patients and may change over time. The platelet titration target expected to be associated with a clinically significant therapeutic effect was a platelet count of ≥50,000 to ≤75,000/μL (50-75×10^9/L). Titration and re-challenge rules based on evaluation of platelet, absolute neutrophil (ANC) and hemoglobin (Hgb) counts are noted below. […]"}, "[2]": {"test_system": "patients with MF", "assay": "Safety / adverse events in the clinical studies (31 subjects)", "format": "in vivo", "source_text": "Safety. […] Four SAEs attributed to Compound 1 (all Grade 3), including painful splenomegaly, headache, nausea and vomiting, and heart failure. There were 139 AEs of all grades attributed to Compound 1. The most common AEs across the 31 subjects from both of the above studies were thrombocytopenia (11 subjects, 35%), anemia (3 subjects, 10%) and nausea (1, 3%). The most common grade 3/4 AEs attributed to Compound 1 were Anemia (6 subjects, 19%) and neutropenia (3 subjects, 10%).\nManagement of Study Toxicities. Adverse event intensity will be evaluated using the National Cancer Institute (NCI) Common Terminology Criteria for Adverse Events (CTCAE) version 4.03, published 14 Jun. 2010."}, "[3]": {"test_system": "somatic mutations in myeloid neoplasm genes (JAK2, CALR, MPL, ASXL1 etc.)", "assay": "Sequencing of somatic mutations, variant allele frequency (VAF) in treated patients (Example 3)", "format": "in vivo, human", "source_text": "The following characterize the sequencing protocol: • Samples: Germline (buccal or hair) and “Tumor” (bone marrow, peripheral blood, granulocytes) • Target enrichment: 11,736 hybridization probes in IDT AML panel targeting 261 genes (˜6300 exons) recurrently mutated in myeloid neoplasms • Illumina sequencing: 2×150 bp paired-end sequencing; ˜10 million pairs sequenced per sample • Aiming for sequencing depth >500; Actual: >1000 for >90% of samples • Analysis: Burrows-Wheeler alignment (BWA)=>VARSCAN2 genotyper=>IGV for CALR, etc. • Cutoffs for somatic calls: Sequencing Depth: >20 Mutant (or Variant) Allele Frequency (VAF): >15% • Annotation: All calls submitted to CADD (Combined Annotation Dependent Depletion) at University of Washington • CADD score cutoff >20 identifies the top 1% of the most deleterious mutations"}, "[4]": {"assay": "Non-clinical studies of acute toxicity", "format": "in vivo", "settings": "even at extremely high doses (human equivalent dose (HED) ˜20-40 mg/kg)"}, "[5]": {"settings": "Phase 2b patients at Week 12, n=14"}}, "note": "Where a name gives a salt, the structure may show the parent alone.", "data": [{"smiles": "CN1CCN(C(=O)[C@H](CCCN[C@@H]2C[C@H]2c2ccc(F)cc2)NC(=O)c2ccc(-n3ccnn3)cc2)CC1", "note": "[Compound 1, N-[(2S)-5-{[(1R, 2S)-2-(4-fluorophenyl)cyclopropyl]amino}-1-(4-methylpiperazin-1-yl)-1-oxopentan-2-yl]-4-(1H-1,2,3-triazol-1-yl)benzamide, bis-tosylate salt]", "values": [{"measurement": "patients with a decrease in spleen volume", "setting": "[1]; [5]", "result": 86, "unit": "%"}, {"measurement": "patients with a spleen volume reduction of ≥20%", "setting": "[1]; [5]", "result": 29, "unit": "%"}, {"measurement": "patients with a spleen volume reduction of ≥35%", "setting": "[1]; [5]", "result": 14, "unit": "%"}, {"measurement": "median change in spleen volume to Wk 12", "setting": "[1]; Phase 2b patients, n=14", "result": "−15", "unit": "%"}, {"measurement": "patients with a decrease in symptom score", "setting": "[1]; all patients at Week 12, n=32", "result": 78, "unit": "%"}, {"measurement": "patients with a reduction in symptom score of ≥50%", "setting": "[1]; all patients at Week 12, n=32", "result": 25, "unit": "%"}, {"measurement": "subjects with grade 3/4 Anemia attributed to Compound 1", "setting": "[2]; 31 subjects", "result": 19, "unit": "%"}, {"measurement": "subjects with grade 3/4 neutropenia attributed to Compound 1", "setting": "[2]; 31 subjects", "result": 10, "unit": "%"}, {"measurement": "subjects with anemia (most common AEs)", "setting": "[2]; 31 subjects from both studies", "result": 10, "unit": "%"}, {"measurement": "subjects with nausea (most common AEs)", "setting": "[2]; 31 subjects from both studies", "result": 3, "unit": "%"}, {"measurement": "subjects with thrombocytopenia (most common AEs)", "setting": "[2]; 31 subjects from both studies", "result": 35, "unit": "%"}, {"measurement": "tolerability", "setting": "[2]; MF patients", "result": "well tolerated"}, {"measurement": "SAEs attributed to Compound 1", "setting": "[2]; all Grade 3: painful splenomegaly, headache, nausea and vomiting, heart failure", "result": "Four"}, {"measurement": "AEs of all grades attributed to Compound 1", "setting": "[2]; human, in vivo", "result": 139}, {"measurement": "deaths or dose-limiting toxicities", "setting": "[2]; throughout the course of the study", "result": "no deaths or dose-limiting toxicities"}, {"measurement": "patients showing a decrease in some or all somatic mutations", "setting": "[3]; 22 patients", "result": 32, "unit": "%"}, {"measurement": "patients with increased VAFs", "setting": "[3]; 22 patients", "result": 14, "unit": "%"}, {"measurement": "patients with stable VAFs", "setting": "[3]; 22 patients", "result": 55, "unit": "%"}, {"measurement": "progression to AML", "setting": "[3]; human, in vivo", "result": "No progression to AML"}, {"measurement": "new mutations", "setting": "[3]; patients followed up to 550+ days", "result": "No new mutations identified"}, {"measurement": "acute toxicity in non-clinical studies", "setting": "[4]", "result": "no evidence"}]}]}
